Results from PubChem BioAssay AID1259407 (Chemical Carcinogenesis Research Information System (CCRIS), 2018).
Activity calls are given as the source filed them. How the calls were made is not given here.

Test system: CCRIS mutagenicity, Ames/micronucleus/aberration tests
Assay: CCRIS mutagenicity studies
[1] = Test System: AMES SALMONELLA TYPHIMURIUM, Strain/Indicator: TA98, Metabolic Activation: NONE, Method: PREINCUBATION
[2] = Test System: AMES SALMONELLA TYPHIMURIUM, Strain/Indicator: TA98, Metabolic Activation: RAT, LIVER, S-9, KANECHLOR 500, Method: PREINCUBATION
[3] = Test System: AMES SALMONELLA TYPHIMURIUM, Strain/Indicator: TA100, Metabolic Activation: NONE, Method: PREINCUBATION
[4] = Test System: AMES SALMONELLA TYPHIMURIUM, Strain/Indicator: TA100, Metabolic Activation: RAT, LIVER, S-9, AROCLOR 1254, Method: STANDARD PLATE

In the case of `NNc1ccccc1[N+](=O)[O-]`, the mutagenic call [1] is reported as “active; positive”, the mutagenic call [2] is reported as “active; positive” and the mutagenic call [3] is reported as “active; positive”.

In the case of `O=[N+]([O-])c1ccc(O)c([N+](=O)[O-])c1`, the mutagenic call (End Point: IN VITRO CHROMOSOMAL ABERRATIONS, Test System: CHO CELLS, Metabolic Activation: NONE) is reported as “active; positive”, the mutagenic call (End Point: IN VITRO CHROMOSOMAL ABERRATIONS, Test System: HUMAN PERIPHERAL LYMPHOCYTES, Metabolic Activation: NONE) is reported as “active; positive” and the mutagenic call (End Point: IN VITRO CHROMOSOMAL ABERRATIONS, Test System: TK6 HUMAN LYMPHOBLASTS, Metabolic Activation: NONE) is reported as “inactive; negative”. For the same molecule, the mutagenic call (End Point: In vitro micronucleus, Test System: Mouse lymphoma L5178Y cells, Metabolic Activation: None) was “active; positive”, the mutagenic call (Test System: AMES SALMONELLA TYPHIMURIUM, Strain/Indicator: TA97, Metabolic Activation: HAMSTER, LIVER, S-9, AROCLOR 1254 (10%), Method: PREINCUBATION) was “inactive; negative” and the mutagenic call (Test System: AMES SALMONELLA TYPHIMURIUM, Strain/Indicator: TA97, Metabolic Activation: HAMSTER, LIVER, S-9, AROCLOR 1254 (30%), Method: PREINCUBATION) was “inactive; negative”. For the same molecule, the mutagenic call (Test System: AMES SALMONELLA TYPHIMURIUM, Strain/Indicator: TA97, Metabolic Activation: NONE, Method: PREINCUBATION) was “inactive; negative”, the mutagenic call (Test System: AMES SALMONELLA TYPHIMURIUM, Strain/Indicator: TA97, Metabolic Activation: RAT, LIVER, S-9, AROCLOR 1254 (10%), Method: PREINCUBATION) was “inactive; negative” and the mutagenic call (Test System: AMES SALMONELLA TYPHIMURIUM, Strain/Indicator: TA97, Metabolic Activation: RAT, LIVER, S-9, AROCLOR 1254 (30%), Method: PREINCUBATION) was “inactive; negative”. For the same molecule, the mutagenic call (Test System: AMES SALMONELLA TYPHIMURIUM, Strain/Indicator: TA98, Metabolic Activation: HAMSTER, LIVER, S-9, AROCLOR 1254 (10%), Method: PREINCUBATION) was “inactive; negative”, the mutagenic call (Test System: AMES SALMONELLA TYPHIMURIUM, Strain/Indicator: TA98, Metabolic Activation: HAMSTER, LIVER, S-9, AROCLOR 1254 (30%), Method: PREINCUBATION) was “inactive; negative” and the mutagenic call [1] was “inactive; negative”. The mutagenic call (Test System: AMES SALMONELLA TYPHIMURIUM, Strain/Indicator: TA98, Metabolic Activation: RAT, LIVER, S-9, AROCLOR 1254 (10%), Method: PREINCUBATION) was “inactive; negative”, the mutagenic call (Test System: AMES SALMONELLA TYPHIMURIUM, Strain/Indicator: TA98, Metabolic Activation: RAT, LIVER, S-9, AROCLOR 1254 (30%), Method: PREINCUBATION) was “inactive; negative” and the mutagenic call [2] was “inactive; negative”. For the same molecule, the mutagenic call (Test System: AMES SALMONELLA TYPHIMURIUM, Strain/Indicator: TA98, Metabolic Activation: RAT, LIVER, S-9, PHENOBARBITAL AND BETA-NAPHTHOFLAVONE, Method: PREINCUBATION) was “inactive; negative”, the mutagenic call (Test System: AMES SALMONELLA TYPHIMURIUM, Strain/Indicator: TA100, Metabolic Activation: HAMSTER, LIVER, S-9, AROCLOR 1254 (10%), Method: PREINCUBATION) was “inactive; negative” and the mutagenic call (Test System: AMES SALMONELLA TYPHIMURIUM, Strain/Indicator: TA100, Metabolic Activation: HAMSTER, LIVER, S-9, AROCLOR 1254 (30%), Method: PREINCUBATION) was “inactive; negative”. For the same molecule, the mutagenic call [3] was “inactive; negative”, the mutagenic call (Test System: AMES SALMONELLA TYPHIMURIUM, Strain/Indicator: TA100, Metabolic Activation: RAT, LIVER, S-9, AROCLOR 1254 (10%), Method: PREINCUBATION) was “inactive; negative” and the mutagenic call (Test System: AMES SALMONELLA TYPHIMURIUM, Strain/Indicator: TA100, Metabolic Activation: RAT, LIVER, S-9, AROCLOR 1254 (30%), Method: PREINCUBATION) was “inactive; negative”. For the same molecule, the mutagenic call (Test System: AMES SALMONELLA TYPHIMURIUM, Strain/Indicator: TA100, Metabolic Activation: RAT, LIVER, S-9, KANECHLOR 500, Method: PREINCUBATION) was “inactive; negative”, the mutagenic call (Test System: AMES SALMONELLA TYPHIMURIUM, Strain/Indicator: TA100, Metabolic Activation: RAT, LIVER, S-9, PHENOBARBITAL AND BETA-NAPHTHOFLAVONE, Method: PREINCUBATION) was “inactive; negative” and the mutagenic call (Test System: AMES SALMONELLA TYPHIMURIUM, Strain/Indicator: TA102, Metabolic Activation: NONE, Method: PREINCUBATION) was “inactive; negative”. The mutagenic call (Test System: AMES SALMONELLA TYPHIMURIUM, Strain/Indicator: TA102, Metabolic Activation: RAT, LIVER, S-9, PHENOBARBITAL AND BETA-NAPHTHOFLAVONE, Method: PREINCUBATION) was “inactive; negative”, the mutagenic call (Test System: AMES SALMONELLA TYPHIMURIUM, Strain/Indicator: TA104, Metabolic Activation: NONE, Method: PREINCUBATION) was “inactive; negative” and the mutagenic call (Test System: AMES SALMONELLA TYPHIMURIUM, Strain/Indicator: TA104, Metabolic Activation: RAT, LIVER, S-9, PHENOBARBITAL AND BETA-NAPHTHOFLAVONE, Method: PREINCUBATION) was “inactive; negative”. For the same molecule, the mutagenic call (Test System: AMES SALMONELLA TYPHIMURIUM, Strain/Indicator: TA1535, Metabolic Activation: HAMSTER, LIVER, S-9, AROCLOR 1254 (10%), Method: PREINCUBATION) was “inactive; negative”, the mutagenic call (Test System: AMES SALMONELLA TYPHIMURIUM, Strain/Indicator: TA1535, Metabolic Activation: HAMSTER, LIVER, S-9, AROCLOR 1254 (30%), Method: PREINCUBATION) was “inactive; negative” and the mutagenic call (Test System: AMES SALMONELLA TYPHIMURIUM, Strain/Indicator: TA1535, Metabolic Activation: RAT, LIVER, S-9, AROCLOR 1254 (10%), Method: PREINCUBATION) was “inactive; negative”. For the same molecule, the mutagenic call (Test System: AMES SALMONELLA TYPHIMURIUM, Strain/Indicator: TA1535, Metabolic Activation: RAT, LIVER, S-9, AROCLOR 1254 (30%), Method: PREINCUBATION) was “inactive; negative”, the mutagenic call (Test System: AMES SALMONELLA TYPHIMURIUM, Strain/Indicator: TA1535, Metabolic Activation: RAT, LIVER, S-9, PHENOBARBITAL AND BETA-NAPHTHOFLAVONE, Method: PREINCUBATION) was “inactive; negative” and the mutagenic call (Test System: AMES SALMONELLA TYPHIMURIUM, Strain/Indicator: TA1537, Metabolic Activation: HAMSTER, LIVER, S-9, AROCLOR 1254 (30%), Method: PREINCUBATION) was “inactive; negative”. The mutagenic call (Test System: AMES SALMONELLA TYPHIMURIUM, Strain/Indicator: TA1537, Metabolic Activation: NONE, Method: PREINCUBATION) was “inactive; negative”, the mutagenic call (Test System: AMES SALMONELLA TYPHIMURIUM, Strain/Indicator: TA1537, Metabolic Activation: RAT, LIVER, S-9, AROCLOR 1254 (30%), Method: PREINCUBATION) was “inactive; negative” and the mutagenic call (Test System: AMES SALMONELLA TYPHIMURIUM, Strain/Indicator: TA1537, Metabolic Activation: RAT, LIVER, S-9, PHENOBARBITAL AND BETA-NAPHTHOFLAVONE, Method: PREINCUBATION) was “inactive; negative”. For the same molecule, the mutagenic call (Test System: E. COLI, Strain/Indicator: WP2UVRA/PKM101, Metabolic Activation: NONE, Method: PREINCUBATION) was “inactive; negative”, the mutagenic call (Test System: E. COLI, Strain/Indicator: WP2UVRA/PKM101, Metabolic Activation: RAT, LIVER, S-9, PHENOBARBITAL AND BETA-NAPHTHOFLAVONE, Method: PREINCUBATION) was “inactive; negative” and the mutagenic call (Test System: E. COLI, Strain/Indicator: WP2UVRA, Metabolic Activation: NONE, Method: PREINCUBATION) was “inactive; negative”. The mutagenic call (Test System: E. COLI, Strain/Indicator: WP2UVRA, Metabolic Activation: RAT, LIVER, S-9, PHENOBARBITAL AND BETA-NAPHTHOFLAVONE, Method: PREINCUBATION) was “inactive; negative” and the mutagenic call (Test System: Mouse lymphoma, Strain/Indicator: L5178Y (tk+/tk-)/Trifluorothymidine, Metabolic Activation: None, Method: Microtiter) was “active; positive”.

For `CCCCCC=O`, the mutagenic call (Test System: CHINESE HAMSTER V-79, Strain/Indicator: V-79/6-THIOGUANINE (HGPRT), Metabolic Activation: NONE, Method: REPLATING) was “active; positive”, the mutagenic call (Test System: CHINESE HAMSTER V-79, Strain/Indicator: V-79/OUABAIN (NA/K), Metabolic Activation: NONE, Method: REPLATING) was “active; positive” and the mutagenic call (Test System: UDS HUMAN HEPATOCYTES, Strain/Indicator: THY INCORP, Metabolic Activation: NONE, Method: AUTORADIOGRAPHY) was “inactive; negative”. For the same molecule, the mutagenic call (Test System: UDS RAT HEPATOCYTES, Strain/Indicator: THY INCORP, Metabolic Activation: NONE, Method: AUTORADIOGRAPHY) was “active; positive”.

With `O=C(c1ccccc1)C1OC1c1ccccc1` (stereo not drawn) the mutagenic call (Test System: AMES SALMONELLA TYPHIMURIUM, Strain/Indicator: TA98, Metabolic Activation: NONE, Method: STANDARD PLATE) was “inactive; negative”, the mutagenic call (Test System: AMES SALMONELLA TYPHIMURIUM, Strain/Indicator: TA98, Metabolic Activation: RAT, LIVER, S-9, AROCLOR 1254, Method: STANDARD PLATE) was “inactive; negative” and the mutagenic call (Test System: AMES SALMONELLA TYPHIMURIUM, Strain/Indicator: TA100, Metabolic Activation: NONE, Method: STANDARD PLATE) was “active; positive”. The mutagenic call [4] was “active; positive”.

`CC1C=Cc2ccc3ccc4ccccc4c3c21` (stereo not drawn) was tested, and the mutagenic call [4] was “inactive; negative”.
